Experimental data published in ChEMBL document CHEMBL5380830, “Development and Therapeutic Implications of Tyrosine Kinase 2 Inhibitors” (J Med Chem, 2023).

Key:
JAK2/TYK2 [1] = molecular target: T1, JAK2/TYK2 (Homo sapiens, UniProt O60674+P29597); assay: Inhibition of JAK2/TYK2 signal transduction pathway in human PBMC cells assessed as IL-12 induced p-STAT4 level by AlphaLISA assay; assay type: cell-based
[2] = molecular target: T2, Non-receptor tyrosine-protein kinase TYK2 (Homo sapiens, UniProt P29597); assay: Binding affinity to His-tagged human recombinant TYK2 JH2 (556 to 871 residues) incubated for 10 hrs by microplate reader based analysis
JAK2/TYK2 [3] = molecular target: T1, JAK2/TYK2; assay: Inhibition of JAK2/TYK2 signal transduction pathway in human PBMC cells assessed as IL-23 induced p-STAT4 level by AlphaLISA assay; assay type: cell-based
[4] = Oral bioavailability in C57BL/6 mouse at 10 mg/kg by LC/MS-MS analysis; assay type: ADME, organism-based; details: in vivo
[5] = molecular target: T2, Non-receptor tyrosine-protein kinase TYK2; assay: Binding affinity to TYK2 JH2 (unknown origin)
[6] = Half life in C57BL/6 mouse at 10 mg/kg, po by LC/MS-MS analysis; assay type: ADME, organism-based; details: in vivo
[7] = molecular target: T3, Tyrosine-protein kinase JAK2 (Homo sapiens, UniProt O60674); assay: Inhibition of JAK2 (unknown origin)
[8] = molecular target: T2, Non-receptor tyrosine-protein kinase TYK2; assay: Inhibition of TYK2 JH1 (unknown origin)
[9] = molecular target: T4, Tyrosine-protein kinase JAK3 (Homo sapiens, UniProt P52333); assay: Inhibition of JAK3 (unknown origin)
T4 sequence (P52333 whole entry): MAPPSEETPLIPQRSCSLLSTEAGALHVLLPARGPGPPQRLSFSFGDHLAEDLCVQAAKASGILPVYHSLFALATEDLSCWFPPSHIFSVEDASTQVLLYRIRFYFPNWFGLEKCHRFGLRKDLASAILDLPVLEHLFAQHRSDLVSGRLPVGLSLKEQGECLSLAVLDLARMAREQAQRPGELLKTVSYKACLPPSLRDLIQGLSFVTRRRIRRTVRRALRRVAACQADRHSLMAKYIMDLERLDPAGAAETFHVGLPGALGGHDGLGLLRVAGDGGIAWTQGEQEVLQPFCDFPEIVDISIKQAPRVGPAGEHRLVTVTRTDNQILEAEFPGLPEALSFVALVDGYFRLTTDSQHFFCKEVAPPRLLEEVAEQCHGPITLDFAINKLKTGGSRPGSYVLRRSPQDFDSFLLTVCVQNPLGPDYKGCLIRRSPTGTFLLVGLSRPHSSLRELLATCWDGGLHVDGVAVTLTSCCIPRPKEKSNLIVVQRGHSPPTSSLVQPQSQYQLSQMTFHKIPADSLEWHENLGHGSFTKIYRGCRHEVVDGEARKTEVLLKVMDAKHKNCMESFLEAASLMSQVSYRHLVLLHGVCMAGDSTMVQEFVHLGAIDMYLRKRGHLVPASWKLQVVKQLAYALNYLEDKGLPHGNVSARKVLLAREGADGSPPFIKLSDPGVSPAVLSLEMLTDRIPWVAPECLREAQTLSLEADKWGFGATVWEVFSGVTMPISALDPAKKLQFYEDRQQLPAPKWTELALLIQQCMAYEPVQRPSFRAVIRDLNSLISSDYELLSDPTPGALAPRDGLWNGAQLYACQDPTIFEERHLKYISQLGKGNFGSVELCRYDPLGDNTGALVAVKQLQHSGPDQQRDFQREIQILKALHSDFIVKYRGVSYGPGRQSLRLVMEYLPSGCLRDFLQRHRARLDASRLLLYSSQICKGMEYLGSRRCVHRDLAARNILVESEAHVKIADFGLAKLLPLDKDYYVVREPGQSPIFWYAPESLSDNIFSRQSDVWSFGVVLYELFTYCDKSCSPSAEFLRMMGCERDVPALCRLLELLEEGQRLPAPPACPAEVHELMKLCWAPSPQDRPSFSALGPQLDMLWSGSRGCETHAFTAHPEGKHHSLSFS

[10] = molecular target: T2, Non-receptor tyrosine-protein kinase TYK2; assay: Inhibition of TYK2 signal transduction pathway in human PBMC cells assessed as IFNalpha induced p-STAT5 level; assay type: cell-based
[11] = molecular target: T5, Tyrosine-protein kinase JAK1 (Homo sapiens, UniProt P23458); assay: Inhibition of JAK1 (unknown origin)
[12] = Inhibition of IFNalpha induced STAT phosphorylation in HEK293 cells by Western blotting analysis; assay type: cell-based; details: Homo sapiens
Janus Kinase (JAK) = Janus Kinase (JAK) (Homo sapiens, UniProt P52333+P23458+O60674+P29597); assay: Inhibition of JAK JH1 (unknown origin); assay type: protein assay
[13] = Inhibition of IFN-gamma induced STAT phosphorylation in HEK293 cells by Western blotting analysis; assay type: cell-based; details: Homo sapiens
[14] = Inhibition of IL-23 induced STAT phosphorylation in HEK293 cells by Western blotting analysis; assay type: cell-based; details: Homo sapiens
[15] = Inhibition of IL-2 induced STAT phosphorylation in HEK293 cells by Western blotting analysis; assay type: cell-based; details: Homo sapiens
JAK2/TYK2 [16] = molecular target: T1, JAK2/TYK2; assay: Inhibition of JAK2/TYK2 in HEK-Blue IL-23 cells assessed as reduction in SEAP reporter gene expression incubated for 21 hrs by Quanti-blue assay; assay type: cell-based
[17] = molecular target: T3, Tyrosine-protein kinase JAK2; assay: Inhibition of JAK2 in human TF-1 cells assessed as reduction of STAT5 phosphorylation by ELISA assay; assay type: cell-based
JAK1/TYK2 = JAK1/TYK2 (Homo sapiens, UniProt P23458+P29597); assay: Inhibition of JAK2/TYK2 in HEK293T cells co-expressing luciferase gene under control of ISRE assessed as reduction in IFNalpha expression incubated for 6 hrs by one-glo reagent based luciferase reporter gene assay; assay type: cell-based
[18] = AUC in C57BL/6 mouse at 10 mg/kg, po by LC/MS-MS analysis; assay type: ADME, organism-based; parameters: dose 10 mg/kg, route po; details: in vivo
[19] = Cmax in C57BL/6 mouse at 10 mg/kg, po by LC/MS-MS analysis; assay type: ADME, organism-based; parameters: dose 10 mg/kg, route po; details: in vivo
[20] = molecular target: T2, Non-receptor tyrosine-protein kinase TYK2; assay: Inhibition of TYK2 JH2 (unknown origin)
[21] = Cmax in ICR mouse at 30 mg/kg, IG by LC/MS/MS analysis; assay type: ADME, organism-based; parameters: dose 30 mg/kg, route ig; details: in vivo, po
[22] = Metabolic stability in human liver microsomes assessed as compound remaining after 60 mins; assay type: ADME, Microsome; details: read-out: Stability
[23] = Half life in ICR mouse at 30 mg/kg, IG by LC/MS/MS analysis; assay type: ADME, organism-based; details: in vivo, po
[24] = molecular target: T5, Tyrosine-protein kinase JAK1; assay: Inhibition of JAK1 JH2 (unknown origin)
JAK2/TYK2 [25] = molecular target: T1, JAK2/TYK2; assay: Inhibition of JAK2/TYK2 signal transduction pathway in human NK92 cells assessed as IL-12 induced STAT4 phosphorylation; assay type: cell-based
[26] = molecular target: T2, Non-receptor tyrosine-protein kinase TYK2; assay: Inhibition of TYK2 signal transduction pathway in human TF-1 cells assessed as reduction in GM-CSF induced p-STAT5 level; assay type: cell-based
[27] = molecular target: T2, Non-receptor tyrosine-protein kinase TYK2; assay: Inhibition of TYK2 JH2 (561 to 860 residues) (unknown origin) by HTRF assay
[28] = molecular target: T5, Tyrosine-protein kinase JAK1; assay: Inhibition of JAK1 (unknown origin) using ULight - JAK (Tyr1023) substrate incubated for 60 mins in presence of ATP by envision plate reader based analysis
[29] = molecular target: T4, Tyrosine-protein kinase JAK3; assay: Inhibition of JAK3 (unknown origin) using ULight - JAK (Tyr1023) substrate incubated for 60 mins in presence of ATP by envision plate reader based analysis
[30] = molecular target: T2, Non-receptor tyrosine-protein kinase TYK2; assay: Inhibition of TYK2 in HEK-Blue IL-23 cells assessed as reduction in SEAP reporter gene expression by Quanti-blue assay; assay type: cell-based

T1 sequence (O60674 whole entry, the tested form may be a part): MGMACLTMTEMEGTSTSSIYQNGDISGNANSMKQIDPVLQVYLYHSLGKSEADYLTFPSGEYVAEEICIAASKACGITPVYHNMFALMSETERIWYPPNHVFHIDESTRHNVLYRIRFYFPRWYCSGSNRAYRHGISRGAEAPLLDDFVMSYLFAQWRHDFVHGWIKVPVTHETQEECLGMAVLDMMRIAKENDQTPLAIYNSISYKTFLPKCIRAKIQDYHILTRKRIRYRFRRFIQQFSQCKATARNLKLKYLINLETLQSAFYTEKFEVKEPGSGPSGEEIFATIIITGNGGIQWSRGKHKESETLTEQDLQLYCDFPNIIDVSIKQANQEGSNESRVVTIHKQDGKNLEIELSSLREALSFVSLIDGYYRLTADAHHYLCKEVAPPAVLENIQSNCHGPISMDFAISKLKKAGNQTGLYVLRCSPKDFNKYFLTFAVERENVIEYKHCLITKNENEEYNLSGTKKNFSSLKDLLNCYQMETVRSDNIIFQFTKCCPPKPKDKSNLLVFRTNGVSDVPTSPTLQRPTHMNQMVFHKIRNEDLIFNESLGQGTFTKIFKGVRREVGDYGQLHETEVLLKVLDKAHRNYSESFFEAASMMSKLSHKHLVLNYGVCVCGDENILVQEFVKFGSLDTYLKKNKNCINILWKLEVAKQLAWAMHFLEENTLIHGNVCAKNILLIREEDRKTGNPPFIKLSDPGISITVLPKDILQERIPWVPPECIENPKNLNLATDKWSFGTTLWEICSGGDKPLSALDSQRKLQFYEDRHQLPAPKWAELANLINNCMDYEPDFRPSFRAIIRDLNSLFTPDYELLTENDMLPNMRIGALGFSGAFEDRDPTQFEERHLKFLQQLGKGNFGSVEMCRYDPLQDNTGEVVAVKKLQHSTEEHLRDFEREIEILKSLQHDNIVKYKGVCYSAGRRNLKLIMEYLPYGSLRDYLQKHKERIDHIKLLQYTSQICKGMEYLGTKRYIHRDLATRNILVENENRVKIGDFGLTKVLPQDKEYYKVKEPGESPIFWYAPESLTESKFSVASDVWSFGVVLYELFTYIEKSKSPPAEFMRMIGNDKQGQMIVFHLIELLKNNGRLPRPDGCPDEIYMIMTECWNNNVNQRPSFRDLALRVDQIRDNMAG
T1 sequence (P29597 whole entry, the tested form may be a part): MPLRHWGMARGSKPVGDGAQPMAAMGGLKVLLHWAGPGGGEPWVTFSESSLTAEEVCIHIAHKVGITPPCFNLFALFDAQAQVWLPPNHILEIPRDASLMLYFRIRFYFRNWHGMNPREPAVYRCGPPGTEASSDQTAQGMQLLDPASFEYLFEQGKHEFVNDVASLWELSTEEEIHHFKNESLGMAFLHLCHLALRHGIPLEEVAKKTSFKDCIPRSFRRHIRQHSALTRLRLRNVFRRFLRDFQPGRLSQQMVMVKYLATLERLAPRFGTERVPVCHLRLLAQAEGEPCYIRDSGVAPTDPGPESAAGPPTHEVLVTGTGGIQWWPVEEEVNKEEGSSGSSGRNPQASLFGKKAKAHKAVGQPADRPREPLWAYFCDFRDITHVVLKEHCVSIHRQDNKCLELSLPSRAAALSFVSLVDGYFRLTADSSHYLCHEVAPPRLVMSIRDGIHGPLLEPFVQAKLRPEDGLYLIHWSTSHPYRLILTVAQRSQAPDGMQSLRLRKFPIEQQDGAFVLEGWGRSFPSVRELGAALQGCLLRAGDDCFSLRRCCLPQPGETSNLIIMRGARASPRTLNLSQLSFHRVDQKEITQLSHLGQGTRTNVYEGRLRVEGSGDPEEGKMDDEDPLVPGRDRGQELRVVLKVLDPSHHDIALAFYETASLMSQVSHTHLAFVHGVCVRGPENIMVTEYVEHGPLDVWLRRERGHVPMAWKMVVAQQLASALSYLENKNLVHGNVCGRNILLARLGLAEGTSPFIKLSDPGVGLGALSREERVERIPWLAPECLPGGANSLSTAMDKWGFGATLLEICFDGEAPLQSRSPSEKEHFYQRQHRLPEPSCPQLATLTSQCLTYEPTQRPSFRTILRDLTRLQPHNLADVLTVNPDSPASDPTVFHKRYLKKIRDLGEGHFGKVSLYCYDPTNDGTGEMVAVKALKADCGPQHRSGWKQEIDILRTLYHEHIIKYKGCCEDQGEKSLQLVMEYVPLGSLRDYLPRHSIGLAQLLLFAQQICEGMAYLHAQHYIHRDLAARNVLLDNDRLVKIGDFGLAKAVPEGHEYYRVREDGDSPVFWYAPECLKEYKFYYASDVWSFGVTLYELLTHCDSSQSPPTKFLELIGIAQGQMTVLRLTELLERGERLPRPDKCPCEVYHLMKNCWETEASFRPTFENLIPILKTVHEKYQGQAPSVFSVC
T3 sequence (O60674 whole entry): as the sequence (O60674 whole entry, the tested form may be a part) above
T2 sequence (P29597 whole entry, the tested form may be a part): as the sequence (P29597 whole entry, the tested form may be a part) above
T5 sequence (P23458 whole entry): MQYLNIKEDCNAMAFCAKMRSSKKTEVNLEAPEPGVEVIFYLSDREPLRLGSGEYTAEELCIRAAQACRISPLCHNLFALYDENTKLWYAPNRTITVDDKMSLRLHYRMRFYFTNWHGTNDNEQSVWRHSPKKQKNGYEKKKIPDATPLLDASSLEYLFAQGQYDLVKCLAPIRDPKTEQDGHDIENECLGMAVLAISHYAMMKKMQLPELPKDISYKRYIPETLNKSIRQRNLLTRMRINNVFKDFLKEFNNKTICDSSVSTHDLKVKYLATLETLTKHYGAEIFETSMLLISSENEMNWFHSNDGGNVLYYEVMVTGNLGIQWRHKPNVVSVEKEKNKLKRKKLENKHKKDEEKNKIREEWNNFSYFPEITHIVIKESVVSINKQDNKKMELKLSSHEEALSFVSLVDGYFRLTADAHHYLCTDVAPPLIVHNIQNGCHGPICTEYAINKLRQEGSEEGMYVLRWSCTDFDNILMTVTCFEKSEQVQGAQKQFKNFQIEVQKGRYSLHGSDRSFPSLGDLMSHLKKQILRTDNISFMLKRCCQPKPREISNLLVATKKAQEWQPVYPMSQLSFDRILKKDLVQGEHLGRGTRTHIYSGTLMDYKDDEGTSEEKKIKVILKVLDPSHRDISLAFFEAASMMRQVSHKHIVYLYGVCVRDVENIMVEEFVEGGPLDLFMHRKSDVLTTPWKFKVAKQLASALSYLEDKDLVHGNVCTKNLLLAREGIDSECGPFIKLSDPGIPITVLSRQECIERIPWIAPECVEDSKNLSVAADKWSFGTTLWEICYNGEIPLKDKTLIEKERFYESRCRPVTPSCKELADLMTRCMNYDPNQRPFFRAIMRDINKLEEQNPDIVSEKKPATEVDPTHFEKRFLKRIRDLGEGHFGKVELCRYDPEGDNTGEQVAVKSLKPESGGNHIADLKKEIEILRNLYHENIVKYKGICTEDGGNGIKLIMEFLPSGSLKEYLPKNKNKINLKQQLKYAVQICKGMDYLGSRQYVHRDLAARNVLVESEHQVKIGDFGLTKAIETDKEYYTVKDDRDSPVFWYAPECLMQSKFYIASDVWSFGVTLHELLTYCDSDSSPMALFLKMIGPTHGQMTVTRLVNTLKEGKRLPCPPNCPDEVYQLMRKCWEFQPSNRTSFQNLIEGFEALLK
Sequence of JAK1/TYK2 (P23458 whole entry): as above
Sequence of JAK1/TYK2 (P29597 whole entry): as the sequence (P29597 whole entry, the tested form may be a part) above

CO[C@@]1(c2cc(C)cc(-c3cc(C)n4cnc(NC(N)=O)cc34)n2)CCOC1
IC50 (JAK2/TYK2 [1]): 8 nM
Ki [2]: 2 nM
IC50 (JAK2/TYK2 [3]): 2 nM

[2H]C([2H])([2H])NC(=O)c1nnc2cc1Nc1cc(cc(-c3ccn(C)n3)c1OC)CCOCc1cccc(n1)N2
bioavailability [4]: 147%
Kd [5]: < 1 nM
half-life [6]: 3.01 h
IC50 [7]: > 10000 nM
IC50 [8]: > 10000 nM
IC50 [9]: > 10000 nM
IC50 [10]: ≤ 50 nM
IC50 [11]: > 10000 nM

CNC(=O)c1cnc2cc1Nc1cc(cc(-c3ccn(C)n3)c1OC)CCOCc1nc(ccc1C)N2
bioavailability [4]: 148%
Kd [5]: < 1 nM
half-life [6]: 2.26 h
IC50 [7]: > 10000 nM
IC50 [8]: > 10000 nM
IC50 [9]: > 10000 nM
IC50 [10]: ≤ 50 nM
IC50 [11]: > 10000 nM

COc1cccc(-n2[nH]c(=O)c3cnc(Nc4cc(C)nc(C)n4)cc32)c1F
IC50 [12]: < 10000 nM
IC50 (Janus Kinase (JAK)): > 90000 nM
IC50 [13]: > 90000 nM
IC50 [14]: < 10000 nM
IC50 [15]: > 90000 nM

[2H]C([2H])([2H])Nc1cc(Nc2cc(Cl)cn(-c3ccccn3)c2=O)nn2c(C(=O)N[C@@H]3C[C@@H]3F)cnc12
EC50 (JAK2/TYK2 [16]): < 1 nM
EC50 [17]: > 10000 nM
EC50 (JAK1/TYK2): < 10 nM

CO[C@@]1(c2cc(C)cc(-n3cc(C4CCN(C)CC4)c4cnc(NC(N)=O)cc43)n2)CCOC1
AUC [18]: 16600 ng·h/mL
IC50 [7]: > 10000 nM
IC50 [8]: > 10000 nM
IC50 [9]: > 10000 nM
Cmax [19]: 2740 ng/mL
IC50 [20]: 2.1 nM
IC50 [11]: > 10000 nM

[2H]C([2H])([2H])NC(=O)c1nnc(NC(=O)C2CC2)cc1Nc1cccc(-c2ncc(-c3cccnc3C(F)(F)F)cn2)c1OC
Cmax [21]: 12500 ng/mL
remaining at 1 h [22]: 100%
half-life [23]: 6.26 h

N#Cc1ccc(-n2[nH]c(=O)c3cnc(Nc4ccc(F)cn4)cc32)cc1Cl
IC50 [12]: < 10000 nM
IC50 (Janus Kinase (JAK)): > 90000 nM
IC50 [13]: > 90000 nM
IC50 [14]: < 10000 nM
IC50 [15]: > 90000 nM

COCCOc1cc(Nc2cc(NC(C)=O)ncc2-c2ccccn2)nc(S(C)(=O)=O)c1
IC50 [24]: 1.2 nM
IC50 (JAK2/TYK2 [25]): 1.21 nM
IC50 [26]: > 10000 nM
IC50 [27]: 0.018 nM

CO[C@@]1(c2cc(C)cc(-n3nc(-c4cnn(C)c4)c4cnc(NC(N)=O)cc43)n2)CCOC1
IC50 (JAK2/TYK2 [1]): 9 nM
Ki [2]: 2 nM
IC50 (JAK2/TYK2 [3]): 3 nM

Cn1cc(-c2cn3ncnc3c(-c3ccn([C@]4(CC#N)C[C@@H](C#N)C4)c3)n2)cn1
IC50 [28]: > 5000 nM
IC50 [29]: > 5000 nM

CO[C@@]1(c2cc(C)cc(-n3cc(C4CC4)c4cnc(NC(C)=O)cc43)n2)CCOC1
AUC [18]: 10900 ng·h/mL
IC50 [7]: > 10000 nM
IC50 [8]: > 10000 nM
Cmax [19]: 2060 ng/mL
IC50 [20]: 0.6 nM

[2H]C([2H])([2H])NC(=O)c1nnc(NC(=O)C2CC2)cc1Nc1ncc(C2CC2)cc1S(C)(=O)=O
IC50 [30]: < 1 nM
